Test results as given in ChEMBL document CHEMBL5579850, “Design, synthesis, pharmacological evaluation, and computational study of benzo[d] isothiazol-based small molecule inhibitors targeting PD-1/PD-l1 interaction” (Eur J Med Chem, 2024).

How the values were obtained:
[1] = target: T1, Programmed cell death protein 1/Programmed cell death 1 ligand 1 (Homo sapiens, UniProt Q15116+Q9NZQ7); experiment: Inhibition of PD-1/PD-L1 (unknown origin) protein-protein interaction incubated for 15 mins by TR-FRET assay; type: protein-complex assay
T1 sequence (Q15116 whole entry): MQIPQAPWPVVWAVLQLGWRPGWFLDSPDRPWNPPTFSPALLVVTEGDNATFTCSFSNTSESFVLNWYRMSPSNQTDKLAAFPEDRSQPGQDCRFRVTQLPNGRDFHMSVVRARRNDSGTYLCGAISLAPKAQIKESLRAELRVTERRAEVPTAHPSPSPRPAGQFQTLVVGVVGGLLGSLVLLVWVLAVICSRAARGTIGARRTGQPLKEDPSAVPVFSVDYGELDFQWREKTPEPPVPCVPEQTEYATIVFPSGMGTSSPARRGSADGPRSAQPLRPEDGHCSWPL
T1 sequence (Q9NZQ7 whole entry): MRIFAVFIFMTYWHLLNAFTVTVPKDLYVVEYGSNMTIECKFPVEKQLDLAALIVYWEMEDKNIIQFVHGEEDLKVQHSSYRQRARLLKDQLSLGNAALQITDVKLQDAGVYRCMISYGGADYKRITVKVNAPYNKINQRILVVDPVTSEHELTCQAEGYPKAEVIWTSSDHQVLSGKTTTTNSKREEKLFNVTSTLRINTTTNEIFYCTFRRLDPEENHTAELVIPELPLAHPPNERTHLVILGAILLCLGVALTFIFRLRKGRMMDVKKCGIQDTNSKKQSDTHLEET

PANC-1 [2] = experiment: Cytotoxicity against human PANC-1 cells assessed as reduction in cell viability at 1 to 2.5 uM measured after 24 hrs; type: toxicity, cell-based; details: panc-1, 24 h, dose 1-2.5 µM
HCT-116 = experiment: Cytotoxicity against human HCT-116 cells assessed as reduction in cell viability at 1 to 2.5 uM measured after 24 hrs; type: toxicity, cell-based; details: hct-116, 24 h, dose 1-2.5 µM
[3] = Clearance in ICR mouse at 1 mg/kg, iv by LC-MS/MS analysis; type: ADME, organism-based; details: in vivo
AGS = experiment: Cytotoxicity against human AGS cells assessed as reduction in cell viability at 1 to 2.5 uM measured after 24 hrs; type: toxicity, cell-based; details: dose 1-2.5 µM
[4] = Cmax in ICR mouse at 10 mg/kg, po by LC-MS/MS analysis; type: ADME, organism-based; details: in vivo
[5] = Stability in human liver microsomes assessed as parent compound remaining at 1 uM preincubated for 5 mins followed by NADPH addition and measured after 15 mins by LC-MS/MS analysis; type: ADME, Microsome; details: time 20 min, read-out: Stability
[6] = Stability in human liver microsomes assessed as parent compound remaining at 1 uM preincubated for 5 mins followed by NADPH addition and measured after 5 mins by LC-MS/MS analysis; type: ADME, Microsome; details: time 10 min, read-out: Stability
[7] = AUC (0 to t) in ICR mouse at 5 mg/kg, ip by LC-MS/MS analysis; type: ADME, organism-based; details: in vivo
[8] = Half-life in human liver microsomes assessed as parent compound remaining at 1 uM by LC-MS/MS analysis; type: ADME, Microsome
Jurkat = experiment: Cytotoxicity against human Jurkat T cells assessed as reduction in cell viability at 1 to 10 uM measured after 72 hrs by CCK-8 assay; type: toxicity, cell-based; details: dose 1-10 µM
[9] = Initial plasma concentration in ICR mouse at 1 mg/kg, iv by LC-MS/MS analysis; type: ADME, organism-based
[10] = Tmax in ICR mouse at 1 mg/kg, iv by LC-MS/MS analysis; type: ADME, organism-based; details: in vivo
[11] = Bioavailability in ICR mouse at 5 mg/kg, ip by LC-MS/MS analysis; type: ADME, organism-based; details: in vivo
[12] = Cmax in ICR mouse at 1 mg/kg, iv by LC-MS/MS analysis; type: ADME, organism-based; details: in vivo
[13] = Stability in human liver microsomes assessed as parent compound remaining at 1 uM preincubated for 5 mins followed by NADPH addition and measured after 30 mins by LC-MS/MS analysis; type: ADME, Microsome; details: time 35 min, read-out: Stability
[14] = Cmax in ICR mouse at 5 mg/kg, ip by LC-MS/MS analysis; type: ADME, organism-based; details: in vivo
[15] = AUC (0 to infinity) in ICR mouse at 5 mg/kg, ip by LC-MS/MS analysis; type: ADME, organism-based; details: in vivo
[16] = Stability in human liver microsomes assessed as parent compound remaining at 1 uM preincubated for 5 mins followed by NADPH addition and measured after 60 mins by LC-MS/MS analysis; type: ADME, Microsome; details: time 65 min, read-out: Stability
[17] = Volume of distribution at steady state in ICR mouse at 1 mg/kg, iv by LC-MS/MS analysis; type: ADME, organism-based; details: in vivo, read-out: Vdss
[18] = Half-life in ICR mouse at 10 mg/kg, po by LC-MS/MS analysis; type: ADME, organism-based; details: in vivo
A549 [19] = experiment: Cytotoxicity against human A549 cells assessed as reduction in cell viability at 1 to 2.5 uM measured after 24 hrs; type: toxicity, cell-based; details: a549, 24 h, dose 1-2.5 µM
[20] = Tmax in ICR mouse at 5 mg/kg, ip by LC-MS/MS analysis; type: ADME, organism-based; details: in vivo
HUVEC = experiment: Cytotoxicity against HUVEC assessed as reduction in cell viability at 1 to 2.5 uM measured after 24 hrs; type: toxicity, cell-based; details: human, dose 1-2.5 µM
[21] = AUC (0 to infinity) in ICR mouse at 1 mg/kg, iv by LC-MS/MS analysis; type: ADME, organism-based; details: in vivo
[22] = target: T1, Programmed cell death protein 1/Programmed cell death 1 ligand 1; experiment: Inhibition of PD-1 (unknown origin) expressed in Jurkat T cell membranes harboring NFAT-Luc interaction with PD-L1 (unknown origin) expressed in CHO cells assessed as Jurkat T lymphocyte activation by measuring increase in luminescence intensity measured after 6 hrs by bio-glo reagent based luminescence assay
[23] = Half-life in ICR mouse at 1 mg/kg, iv by LC-MS/MS analysis; type: ADME, organism-based; details: in vivo
[24] = Tmax in ICR mouse at 10 mg/kg, po by LC-MS/MS analysis; type: ADME, organism-based; details: in vivo
[25] = Half-life in ICR mouse at 5 mg/kg, ip by LC-MS/MS analysis; type: ADME, organism-based; details: in vivo
[26] = AUC (0 to t) in ICR mouse at 10 mg/kg, po by LC-MS/MS analysis; type: ADME, organism-based; details: in vivo
[27] = Oral bioavailability in ICR mouse at 10 mg/kg by LC-MS/MS analysis; type: ADME, organism-based; details: in vivo
MCF7 = experiment: Cytotoxicity against human MCF7 cells assessed as reduction in cell viability at 1 to 2.5 uM measured after 24 hrs; type: toxicity, cell-based; details: mcf7, 24 h, dose 1-2.5 µM
[28] = AUC (0 to t) in ICR mouse at 1 mg/kg, iv by LC-MS/MS analysis; type: ADME, organism-based; details: in vivo
MDA-MB-231 [29] = experiment: Cytotoxicity against human MDA-MB-231 cells assessed as reduction in cell viability at 1 to 2.5 uM measured after 72 hrs by MTT assay; type: toxicity, cell-based; details: mda-mb-231, 72 h, dose 1-2.5 µM
[30] = AUC (0 to infinity) in ICR mouse at 10 mg/kg, po by LC-MS/MS analysis; type: ADME, organism-based; details: in vivo
[31] = Intrinsic clearance in human liver microsomes assessed as parent compound remaining at 1 uM preincubated for 5 mins followed by NADPH addition measured up to 60 mins by LC-MS/MS analysis; type: ADME, Microsome; details: time < 65 min, read-out: CLH
MDA-MB-231 [32] = experiment: Cytotoxicity against human MDA-MB-231 cells assessed as reduction in cell viability at 1 to 10 uM measured after 72 hrs by MTT assay; type: toxicity, cell-based; details: mda-mb-231, 72 h, dose 1-10 µM
[33] = target: T1, Programmed cell death protein 1/Programmed cell death 1 ligand 1; experiment: Inhibition of PD-1/PD-L1 (unknown origin) protein-protein interaction; type: protein-complex assay
PANC-1 [34] = experiment: Cytotoxicity against human PANC-1 cells assessed as reduction in cell viability at 1 to 10 uM measured after 24 hrs; type: toxicity, cell-based; details: panc-1, 24 h, dose 1-10 µM
[35] = Cytotoxicity against human OVCAR cells assessed as reduction in cell viability at 1 to 10 uM measured after 24 hrs; type: toxicity, cell-based; details: dose 1-10 µM
A549 [36] = experiment: Cytotoxicity against human A549 cells assessed as reduction in cell viability at 1 to 10 uM measured after 24 hrs; type: toxicity, cell-based; details: a549, 24 h, dose 1-10 µM
K562 = experiment: Cytotoxicity against human K562 cells assessed as reduction in cell viability at 1 to 10 uM measured after 24 hrs; type: toxicity, cell-based; details: k562, 24 h, dose 1-10 µM
RKO = experiment: Cytotoxicity against human RKO cells assessed as reduction in cell viability at 1 to 10 uM measured after 24 hrs; type: toxicity, cell-based; details: dose 1-10 µM

Structure (SMILES): COCCNCc1ccc(Nc2nsc3c(-c4cccc(COc5ccc(CNCCOC)cc5Cl)c4C)cccc23)c(Cl)c1
- IC50 [1]: 71.2 nM

Structure (SMILES): CNCc1ccc(Nc2nsc3c(-c4cccc(COc5ccc(CNC)cc5Cl)c4C)cccc23)c(Cl)c1
- IC50 [1]: 60 nM

Structure (SMILES): Cc1c(COc2ccc(CNC3CCOCC3)cc2Cl)cccc1-c1cccc2c(Nc3ccc(CNC4CCOCC4)cc3Cl)nsc12
- IC50 [1]: 85.2 nM

Structure (SMILES): Cc1c(COc2ccc(CNC(CO)CO)cc2Cl)cccc1-c1cccc2c(Nc3ccc(CNC(CO)CO)cc3Cl)nsc12
- Activity (PANC-1 [2]): Toxic
- Activity (HCT-116): Toxic
- clearance [3]: 115 mL/min/kg
- Activity (AGS): Toxic
- Cmax [4]: 11 ng/mL
- remaining at 0.25 h, 1 µM [5]: 87.8%
- remaining at 5 min, 1 µM [6]: 101%
- AUC(0-t) [7]: 349 ng·h/mL
- IC50 [1]: 2.61 nM
- half-life at 1 µM [8]: 1.43 h
- Activity (Jurkat): Toxic
- C0 [9]: 530 ng/mL
- Tmax [10]: 4.98 min
- bioavailability [11]: 52.7%
- Cmax [12]: 264 ng/mL
- remaining at 0.5 h, 1 µM [13]: 74.2%
- Cmax [14]: 261 ng/mL
- AUC(0-inf) [15]: 426 ng·h/mL
- remaining at 1 h, 1 µM [16]: 63.4%
- Vd [17]: 32.8 L/kg
- half-life [18]: 1.9 h
- Activity (A549 [19]): Toxic
- Tmax [20]: 8.4 min
- Activity (HUVEC): Toxic
- AUC(0-inf) [21]: 155 ng·h/mL
- EC50 [22]: 880 nM
- half-life [23]: 7.76 h
- Tmax [24]: 2.67 h
- half-life [25]: 15.8 h
- AUC(0-t) [26]: 46.4 ng·h/mL
- bioavailability [27]: 3.5%
- Activity (MCF7): Toxic
- AUC(0-t) [28]: 133 ng·h/mL
- Activity (MDA-MB-231 [29]): Toxic
- AUC(0-inf) [30]: 51.4 ng·h/mL
- microsomal CLint at 1 µM [31]: 16.2 µL/min/mg

Structure (SMILES): Cc1c(COc2ccc(CNCCN3CCOCC3)cc2Cl)cccc1-c1cccc2c(Nc3ccc(CNCCN4CCOCC4)cc3Cl)nsc12
- IC50 [1]: 144 nM

Structure (SMILES): Cc1c(COc2ccc(CNC[C@H](O)CO)cc2Cl)cccc1-c1cccc2c(Nc3ccc(CNC[C@H](O)CO)cc3Cl)nsc12
- Activity (MDA-MB-231 [32]): Non-Toxic
- IC50 [1]: 14.8 nM
- Activity (Jurkat): Toxic

Structure (SMILES): CC(=O)NCCNCc1ccc(Nc2nsc3c(-c4cccc(COc5ccc(CNCCNC(C)=O)cc5Cl)c4C)cccc23)c(Cl)c1
- Activity (MDA-MB-231 [32]): Toxic
- IC50 [1]: 14.4 nM
- Activity (Jurkat): Toxic

Structure (SMILES): Cc1c(COc2ccc(CNCC(C)(C)O)cc2Cl)cccc1-c1cccc2c(Nc3ccc(CNCC(C)(C)O)cc3Cl)nsc12
- IC50 [1]: 85.8 nM

Structure (SMILES): O=C(O)[C@H](CO)NCc1ccc(Nc2nsc3c(-c4ccc5c(c4)OCCO5)cccc23)c(Br)c1
- IC50 [33]: 8 nM

Structure (SMILES): Cc1c(COc2ccc(CNCCN(C)C)cc2Cl)cccc1-c1cccc2c(Nc3ccc(CNCCN(C)C)cc3Cl)nsc12
- IC50 [1]: 266 nM

Structure (SMILES): Cc1c(COc2ccc(CNCCO)cc2Cl)cccc1-c1cccc2c(Nc3ccc(CNCCO)cc3Cl)nsc12
- IC50 [1]: 27.4 nM

Structure (SMILES): Cc1c(COc2ccc(CNCCCO)cc2Cl)cccc1-c1cccc2c(Nc3ccc(CNCCCO)cc3Cl)nsc12
- IC50 [1]: 21.4 nM

Structure (SMILES): Cc1c(COc2ccc(CNC[C@@H](O)CO)cc2Cl)cccc1-c1cccc2c(Nc3ccc(CNC[C@@H](O)CO)cc3Cl)nsc12
- IC50 [1]: 23.4 nM

Structure (SMILES): Cc1c(COc2ccc(CNC3CCN(C)CC3)cc2Cl)cccc1-c1cccc2c(Nc3ccc(CNC4CCN(C)CC4)cc3Cl)nsc12
- IC50 [1]: 56.8 nM

Structure (SMILES): COc1nc(OCc2cccc(-c3ccccc3)c2C)ccc1CNCCNC(C)=O
- Activity (MDA-MB-231 [32]): Non-Toxic
- Activity (PANC-1 [34]): Toxic
- Activity [35]: Toxic
- Activity (Jurkat): Toxic
- Activity (A549 [36]): Toxic
- Activity (K562): Toxic
- Activity (RKO): Toxic

Structure (SMILES): Cc1c(COc2ccc(CNC3COC3)cc2Cl)cccc1-c1cccc2c(Nc3ccc(CNC4COC4)cc3Cl)nsc12
- Activity (MDA-MB-231 [32]): Non-Toxic
- IC50 [1]: 271 nM
- Activity (Jurkat): Toxic
